Read-outs that look alike come from different tables or passages of the source.
Tests used:
human subjects = conditions: cited from earlier work
5HT2 receptor subtypes = conditions: 5HT2 agonist, rank order of subtypes; cited from earlier work
[1] = test system: lasered (hypertensive) eyes of conscious cynomolgus monkeys; experiment: Acute IOP Response in Lasered (Hypertensive) Eyes of Conscious Cynomolgus Monkeys; assay type: in vivo, cynomolgus monkey; conditions: topical, one 30 μL aliquot, dose (R)-DOI 100 μg, α-methylserotonin 250 μg, 5-methoxy-α-methyltryptamine 300 μg, serotonin 250 μg
Experimental: Acute IOP Response in Lasered (Hypertensive) Eyes of Conscious Cynomolgus Monkeys
Intraocular pressure (IOP) was determined with an Alcon Pneumatonometer after light corneal anesthesia with 0.1% proparacaine. Eyes were washed with saline after each measurement. After a baseline IOP measurement, test compound was instilled in one 30 μL aliquot to the right eyes only of nine cynomolgus monkeys. Vehicle was instilled in the right eyes of six additional animals. Subsequent IOP measurements were taken at 1, 3, and 6 hours.

rabbit eye = conditions: cited from earlier work
glaucomatous monkeys = conditions: cited from earlier work
5HT2 receptor = 5HT2 receptor (Rattus norvegicus, UniProt P14842); experiment: cell-based
Sequence of 5HT2 receptor (P14842 whole entry): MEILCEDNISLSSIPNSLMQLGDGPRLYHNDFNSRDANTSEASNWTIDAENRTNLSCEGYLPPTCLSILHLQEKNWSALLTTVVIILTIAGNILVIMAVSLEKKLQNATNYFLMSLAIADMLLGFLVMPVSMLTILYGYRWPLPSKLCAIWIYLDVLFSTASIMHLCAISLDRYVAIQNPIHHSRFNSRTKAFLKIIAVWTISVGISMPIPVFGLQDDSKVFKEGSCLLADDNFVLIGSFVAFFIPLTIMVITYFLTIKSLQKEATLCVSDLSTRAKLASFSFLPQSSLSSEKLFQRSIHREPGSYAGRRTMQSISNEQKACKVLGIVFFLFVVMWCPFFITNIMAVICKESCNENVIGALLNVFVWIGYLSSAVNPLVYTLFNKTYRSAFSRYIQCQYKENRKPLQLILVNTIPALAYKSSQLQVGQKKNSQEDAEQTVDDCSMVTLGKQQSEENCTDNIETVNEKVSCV
Experimental: Confluent cells are exposed for 24-30 hrs to 1.5 μCi [^3H]-myo-inositol (18.3 Ci/mmol) in 0.5 ml of serum-free medium. Cells are then rinsed once with DMEM/F-12 containing 10 mM LiCl prior to incubation with the test agent (or solvent as the control) in 1.0 ml of the same medium for 1 hr at 37° C., after which the medium is aspirated and 1 ml of cold 0.1 M formic acid added to stop the reaction. […] The eluate (4 ml) is collected, mixed with 15 ml scintillation fluid, and the total [^3H]-IPs determined by scintillation counting on a beta-counter.

[2] = man, dosed systemically; cited from earlier work
[3] = rabbit, administered intracamerally

In the case of `CNCCC(Oc1ccc(C(F)(F)F)cc1)c1ccccc1` (stereo not shown) [fluoxetine], the “effect on IOP” value (human subjects; human subjects, oral administration) is given as “raises IOP”.

In the case of `CC(N)Cc1c[nH]c2ccc(O)cc12` (stereo not drawn) [α-Methylserotonin, α-methyl-serotonin], the receptor subtype selectivity (5HT2 receptor subtypes) is given as 5HT2B>5HT2C>5HT2A, the “Percent IOP Reduction ± SEM, 1 hour after dose” value [1] is given as 14.2 ± 4.39% and the “Percent IOP Reduction ± SEM, 3 hours after dose” value [1] is given as 25.8 ± 5.16%. For the same compound, the “Percent IOP Reduction ± SEM, 6 hours after dose” value [1] was 30.8 ± 7.72%.

In the case of `COc1cccc(CCc2ccccc2OCC(CN(C)C)OC(=O)CCC(=O)O)c1` (stereo not shown) [Saprogrelate], the “effect on IOP” value (human subjects; man, dosed topically or orally) is listed as “lowers IOP” and the “effect on IOP” value (rabbit eye; rabbits, dosed topically or orally) is listed as “lowers IOP”.

For `COc1ccccc1N1CCN(CCCNc2c(C)c(=O)n(C)c(=O)n2C)CC1` [5-methylurapidil], the “effect on IOP” value (glaucomatous monkeys) is given as “lowered IOP”.

For `c1ccc2c(c1)OC[C@H](CNCCCOc1ccc3c(c1)OCO3)O2` [MKC-242], the “effect on IOP” value (rabbit eye; rabbits, route not stated) is listed as “lower IOP”.

For `CCCN(CCC)C1CCc2cccc(O)c2C1` (stereo not shown) [8-hydroxy DPAT], the “effect on IOP” value (rabbit eye; rabbits, route not stated) is listed as “lower IOP”.

With `NCCc1c[nH]c2ccc(O)cc12` [Serotonin, 5-hydroxytryptamine] the “Percent IOP Reduction ± SEM, 1 hour after dose” value [1] was 13.3 ± 5.31%, the “Percent IOP Reduction ± SEM, 3 hours after dose” value [1] was 18.0 ± 5.12% and the “Percent IOP Reduction ± SEM, 6 hours after dose” value [1] was 2.0 ± 7.39%. For the same compound, the blood-aqueous barrier (rabbit eye; [3]) was “caused breakdown of the blood-aqueous barrier” and the “effect on IOP” value (rabbit eye; [3]) was “increase in IOP”.

For `COc1cc(C[C@@H](C)N)c(OC)cc1I` [(R)-DOI, (R)4-iodo-2,5 dimethoxy-α-methyl-benzeneethanamine], the EC50 (5HT2 receptor) was 277 ± 35 nM, the “Percent IOP Reduction ± SEM, 1 hour after dose” value [1] was 11.0 ± 4.98% and the “Percent IOP Reduction ± SEM, 3 hours after dose” value [1] was 25.3 ± 2.97%. The “Percent IOP Reduction ± SEM, 6 hours after dose” value [1] was 34.4 ± 4.98%.

For `CC[C@@H](CO)NC(=O)[C@@H]1C=C2c3cccc4c3c(cn4C)C[C@H]2N(C)C1` [Methysergide], the “effect on IOP” value (rabbit eye; rabbits, route not stated) is listed as “lowered IOP”.

In the case of `COc1cc(CC(C)N)c(OC)cc1I` (stereo not shown) [DOI], the CNS side effects [2] is listed as “cause central nervous system (CNS) side effects”.

For `NCCc1c[nH]c2ccc(C(N)=O)cc12` [5-carboxamidotryptamine], the “effect on intraocular pressure (IOP)” value (rabbit eye; rabbit, topically applied) is listed as “raise intraocular pressure”.

For `COc1ccc2[nH]cc(CC(C)N)c2c1` (stereo not drawn) [5-Methoxy-α-methyltryptamine, 5-methoxy-α-methyltryptamine], the Emax (5HT2 receptor; A7R5, read-out: Efficacy (Emax, %)) was 107%, the “Percent IOP Reduction ± SEM, 1 hour after dose” value [1] was 21.6 ± 5.05% and the “Percent IOP Reduction ± SEM, 3 hours after dose” value [1] was 35.2 ± 6.12%. The “Percent IOP Reduction ± SEM, 6 hours after dose” value [1] was 33.4 ± 5.39%.

For `O=C(c1ccc(F)cc1)C1CCN(CCn2c(=O)[nH]c3ccccc3c2=O)CC1` [Ketanserin], the “effect on IOP” value (human subjects; man, route not stated) is given as “lowers IOP” and the “effect on IOP” value (rabbit eye; rabbits, route not stated) is given as “lowers IOP”.

Source: patent US6664286B1, “Serotonergic 5ht2 agonists for treating glaucoma” (Alcon Manufacturing, Ltd., priority 1998, dated 2003)
